Experiment [1] concerns the target PI3Kγ (p110γ) (Homo sapiens (Human), UniProt P48736). The experiment is described as follows: PI3K-γ scintillation proximity assay. It counts as biochemical. Particulars: recombinant human PI3Kγ 13 nM, 20 μM PIP2, 2 μM ATP, 120 min, room temperature. Summed up:
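Recombinant human p110γ (13 nM) with 20 μM PIP2, 2 μM ATP plus [γ-33P]ATP in 20 mM MOPS pH 6.7, 10 mM MgCl2, 5 mM DTT, 0.03% CHAPS, 2% DMSO. Reaction ran 120 min at room temperature, then was quenched with EDTA and read with WGA SPA beads. IC50 came from percent-of-solvent-control curves.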

The target in experiment [2] is PI3Kδ (p110δ/p85α) (Homo sapiens (Human), UniProt O00329). The experiment is described as follows: PI3Kδ scintillation proximity assay. It is filed as biochemical. Particulars: recombinant human PI3Kδ 3.4 nM, 20 μM PIP2, 2 μM ATP, 120 min, room temperature. An outline of the steps:
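Recombinant p110δ/p85α (3.4 nM) with 20 μM PIP2, 2 μM ATP plus [γ-33P]ATP in MOPS pH 6.7, MgCl2, DTT, CHAPS, 2% DMSO; 120 min, room temperature. EDTA-quenched product captured on WGA SPA beads, scintillation counted. IC50 from percent solvent-control activity versus log inhibitor concentration.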
(In general: In a scintillation proximity assay essentially only radioactivity close to the scintillant gives light.)

Experiment [3] concerns Phosphorylated Ribosomal Protein S6 (RPS6) in THP-1 cells. Nature of the experiment: THP-1 RPS6 ELISA assay. It counts as cell-based, Human. The following applies: Homo sapiens, THP-1, serum starved THP-1 cells, 2 hours compound, 10 nM MCP-1 for 15 minutes, Phospho-RPS6 ELISA; read-out: PI3Kγ_THP1_RPS6_ELISA IC50. Summed up: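 Phospho-RPS6 in lysates measured by ELISA at 450 nm, corrected at 540 nm, after MCP-1 challenge (10 nM, 15 min) of THP-1 cells that were starved overnight and exposed to test compound for 2 h at 37° C, 2×10^5 cells/well. Curve fit of percent inhibition gives IC50.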
For orientation: ELISA stands for enzyme-linked immunosorbent assay.

Results on eight molecules are retold here after patent US11396502B2, “Substituted heterocyclic derivatives as PI3K inhibitors” (Incyte Corporation, priority 2018, dated 2022).

The term IC50 denotes the concentration that inhibits the measured activity by half.

Counter-ions that a name gives are not always drawn.

PI3Kδ (p110δ/p85α), sequence (O00329 whole entry): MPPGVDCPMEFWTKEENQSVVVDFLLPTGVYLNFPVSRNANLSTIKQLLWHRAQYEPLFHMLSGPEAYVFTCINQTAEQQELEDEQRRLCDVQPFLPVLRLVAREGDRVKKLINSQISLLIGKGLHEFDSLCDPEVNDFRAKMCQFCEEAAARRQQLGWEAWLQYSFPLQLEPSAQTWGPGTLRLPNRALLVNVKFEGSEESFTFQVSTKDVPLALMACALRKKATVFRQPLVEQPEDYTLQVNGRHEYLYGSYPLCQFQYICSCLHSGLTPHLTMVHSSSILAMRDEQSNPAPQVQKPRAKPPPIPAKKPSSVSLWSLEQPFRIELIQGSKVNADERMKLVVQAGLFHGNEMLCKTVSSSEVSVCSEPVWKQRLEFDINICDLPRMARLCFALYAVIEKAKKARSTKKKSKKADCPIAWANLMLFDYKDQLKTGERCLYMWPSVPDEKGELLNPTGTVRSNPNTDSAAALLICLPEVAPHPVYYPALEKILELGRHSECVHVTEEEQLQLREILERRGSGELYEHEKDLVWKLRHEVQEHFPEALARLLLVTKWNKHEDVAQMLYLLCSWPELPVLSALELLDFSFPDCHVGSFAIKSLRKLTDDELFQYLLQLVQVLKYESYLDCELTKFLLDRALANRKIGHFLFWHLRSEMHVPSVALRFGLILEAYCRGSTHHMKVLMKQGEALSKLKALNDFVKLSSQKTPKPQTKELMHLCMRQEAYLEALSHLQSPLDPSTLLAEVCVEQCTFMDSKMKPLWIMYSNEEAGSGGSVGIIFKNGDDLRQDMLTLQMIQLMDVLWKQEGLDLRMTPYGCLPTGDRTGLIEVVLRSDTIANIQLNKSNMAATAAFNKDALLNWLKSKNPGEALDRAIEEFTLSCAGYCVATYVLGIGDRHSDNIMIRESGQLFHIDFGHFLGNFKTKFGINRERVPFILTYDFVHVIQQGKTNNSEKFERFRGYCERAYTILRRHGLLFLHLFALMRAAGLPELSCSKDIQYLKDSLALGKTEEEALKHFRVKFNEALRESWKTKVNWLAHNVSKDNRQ
PI3Kδ (p110δ/p85α), sequence (P27986 whole entry partner): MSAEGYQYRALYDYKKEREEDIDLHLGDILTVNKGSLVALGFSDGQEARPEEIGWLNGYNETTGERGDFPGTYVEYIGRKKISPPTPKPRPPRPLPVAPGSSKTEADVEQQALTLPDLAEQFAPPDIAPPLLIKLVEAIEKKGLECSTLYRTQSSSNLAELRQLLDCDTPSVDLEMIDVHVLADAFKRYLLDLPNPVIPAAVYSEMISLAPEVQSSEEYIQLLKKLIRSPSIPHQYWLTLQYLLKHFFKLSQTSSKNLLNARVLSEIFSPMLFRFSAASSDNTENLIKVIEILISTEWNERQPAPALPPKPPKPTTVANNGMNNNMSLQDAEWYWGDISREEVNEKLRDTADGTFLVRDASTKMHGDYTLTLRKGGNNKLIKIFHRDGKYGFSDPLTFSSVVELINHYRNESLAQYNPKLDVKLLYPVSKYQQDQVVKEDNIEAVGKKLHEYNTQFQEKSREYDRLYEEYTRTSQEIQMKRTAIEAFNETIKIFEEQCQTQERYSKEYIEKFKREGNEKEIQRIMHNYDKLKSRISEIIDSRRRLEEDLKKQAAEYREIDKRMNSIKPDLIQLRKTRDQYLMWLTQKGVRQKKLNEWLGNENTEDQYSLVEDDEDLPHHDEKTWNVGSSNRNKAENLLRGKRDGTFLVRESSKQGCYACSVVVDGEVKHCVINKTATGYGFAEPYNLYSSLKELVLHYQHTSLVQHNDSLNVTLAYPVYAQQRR
PI3Kγ (p110γ), sequence (P48736 whole entry): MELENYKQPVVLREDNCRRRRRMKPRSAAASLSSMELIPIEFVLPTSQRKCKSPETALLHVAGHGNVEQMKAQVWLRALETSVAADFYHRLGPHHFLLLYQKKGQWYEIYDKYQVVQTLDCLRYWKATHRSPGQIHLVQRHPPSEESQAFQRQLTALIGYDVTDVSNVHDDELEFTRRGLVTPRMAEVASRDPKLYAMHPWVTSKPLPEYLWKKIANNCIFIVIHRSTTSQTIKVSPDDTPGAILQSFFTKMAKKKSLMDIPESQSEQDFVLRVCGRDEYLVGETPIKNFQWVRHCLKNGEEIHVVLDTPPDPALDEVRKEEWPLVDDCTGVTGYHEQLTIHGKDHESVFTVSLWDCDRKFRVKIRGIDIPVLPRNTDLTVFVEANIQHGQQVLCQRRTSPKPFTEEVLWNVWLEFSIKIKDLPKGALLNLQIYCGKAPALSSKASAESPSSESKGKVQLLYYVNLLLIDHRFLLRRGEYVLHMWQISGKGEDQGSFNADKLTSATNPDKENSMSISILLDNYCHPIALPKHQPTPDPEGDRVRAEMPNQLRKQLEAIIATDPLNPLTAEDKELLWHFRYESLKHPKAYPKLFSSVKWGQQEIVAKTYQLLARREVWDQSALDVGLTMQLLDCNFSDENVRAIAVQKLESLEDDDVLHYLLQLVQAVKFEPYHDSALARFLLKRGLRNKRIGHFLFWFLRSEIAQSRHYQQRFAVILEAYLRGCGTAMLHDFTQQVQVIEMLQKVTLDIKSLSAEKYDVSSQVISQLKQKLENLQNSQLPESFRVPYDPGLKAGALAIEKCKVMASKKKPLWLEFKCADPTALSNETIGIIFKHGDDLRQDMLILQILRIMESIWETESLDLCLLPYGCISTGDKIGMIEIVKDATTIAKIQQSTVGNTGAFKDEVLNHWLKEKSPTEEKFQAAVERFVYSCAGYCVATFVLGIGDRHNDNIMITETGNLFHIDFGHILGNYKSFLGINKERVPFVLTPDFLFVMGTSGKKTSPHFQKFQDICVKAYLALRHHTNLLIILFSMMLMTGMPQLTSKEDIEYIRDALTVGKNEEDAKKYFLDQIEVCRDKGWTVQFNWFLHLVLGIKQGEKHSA

As to `C[C@@H](C1CC1)N1Cc2cc(-c3cnnc(-c4ccn[nH]4)c3)cc(S(C)(=O)=O)c2C1=O` [Example 9, (S)-5-(6-(1H-Pyrazol-5-yl)pyridazin-4-yl)-2-(1-cyclopropylethyl)-7-(methylsulfonyl)isoindolin-1-one Trifluoroacetate Salt], the half-inhibitory concentration (IC50) in experiment [1] was 0.1 to 0.5 µM; in experiment [2], > 2 µM; in experiment [3] it was > 1 µM.
The like results for `Cc1cc(-c2cc(-c3cc4c(c(S(C)(=O)=O)c3)C(=O)N([C@@H](C)C3CC3)C4)ccn2)[nH]n1` [Example 14, (S)-2-(1-Cyclopropylethyl)-5-(2-(3-methyl-1H-pyrazol-5-yl)pyridin-4-yl)-7-(methylsulfonyl)isoindolin-1-one, Trifluoroacetate Salt] were, in that order, < 0.1 µM, > 2 µM and > 1 µM.
The like results for `Cc1[nH]c(-c2cc(-c3cc4c(c(S(C)(=O)=O)c3)C(=O)N([C@@H](C)C3CC3)C4)ccn2)nc1C(=O)N1CC(F)(F)C1` [Example 7d, (S)-2-(1-Cyclopropylethyl)-5-(2-(5-(3,3-difluoroazetidine-1-carbonyl)-4-methyl-1H-imidazol-2-yl)pyridin-4-yl)-7-(methylsulfonyl)isoindolin-1-one, trifluoroacetate salt] were, in that order, < 0.1 µM, 0.1 to 0.5 µM and 0.1 to 0.5 µM.
In the case of `C[C@@H](C1CC1)N1Cc2cc(-c3ccnc(-c4ncc[nH]4)c3)cc(S(C)(=O)=O)c2C1=O` [Example 17, (S)-5-(2-(1H-Imidazol-2-yl)pyridin-4-yl)-2-(1-cyclopropylethyl)-7-(methylsulfonyl)isoindolin-1-one, trifluoroacetate salt], the IC50 in experiment [1] is < 0.1 µM; in experiment [2], > 2 µM; in experiment [3] it was 0.5 to 1 µM.
The matching figures for `Cc1[nH]c(-c2cc(-c3cc4c(c(S(C)(=O)=O)c3)C(=O)N([C@@H](C)C3CC3)C4)ccn2)nc1C(=O)N(C)C1CCOCC1` [Example 7o, (S)-2-(4-(2-(1-Cyclopropylethyl)-7-(methylsulfonyl)-1-oxoisoindolin-5-yl)pyridin-2-yl)-N,4-dimethyl-N-(tetrahydro-2H-pyran-4-yl)-1H-imidazole-5-carboxamide, trifluoroacetate salt]: < 0.1 µM, 0.1 to 0.5 µM and 0.1 to 0.5 µM.
The matching figures for `Cc1[nH]c(-c2cc(-c3cc4c(c(S(C)(=O)=O)c3)C(=O)N([C@@H](C)C3CC3)C4)ccn2)nc1C(=O)N(C)C1CCC1` [Example 7u, (S)-N-Cyclobutyl-2-(4-(2-(1-cyclopropylethyl)-7-(methylsulfonyl)-1-oxoisoindolin-5-yl)pyridin-2-yl)-N,4-dimethyl-1H-imidazole-5-carboxamide, trifluoroacetate salt]: < 0.1 µM, 0.5 to 2 µM and 0.1 to 0.5 µM.
Turning to `Cc1[nH]c(-c2cc(-c3cc4c(c(S(C)(=O)=O)c3)C(=O)N([C@@H](C)C3CC3)C4)ccn2)nc1C(=O)NC1CCOCC1` [Example 7b, (S)-2-(4-(2-(1-Cyclopropylethyl)-7-(methylsulfonyl)-1-oxoisoindolin-5-yl)pyridin-2-yl)-4-methyl-N-(tetrahydro-2H-pyran-4-yl)-1H-imidazole-5-carboxamide, trifluoroacetate salt], the IC50 in experiment [1] is < 0.1 µM; in experiment [2], 0.1 to 0.5 µM; in experiment [3] it was 0.5 to 1 µM.
The matching figures for `Cc1[nH]c(-c2cc(-c3ccc4c(c3)CN([C@@H](C)C3CC3)C4=O)ccn2)nc1C(=O)NC(C)C` [Example 3, (S)-2-(4-(2-(1-Cyclopropylethyl)-1-oxoisoindolin-5-yl)pyridin-2-yl)-N-isopropyl-5-methyl-1H-imidazole-4-carboxamide Trifluoroacetate Salt]: < 0.1 µM, 0.5 to 2 µM and > 1 µM.
